Source: patent US20250213530A1 (GH RESEARCH IRELAND LIMITED, priority 2022, published 2025)

Key:
[1] = tested on: patient with postpartum depression (PPD); test: Clinical trial of inhaled 5-MeO-DMT (IDR, 6 mg then 12 mg), Barkin Index of Maternal Functioning (BIMF); type: in vivo, human; conditions: one PPD patient
Excerpt: Maternal functioning can, for instance, be assessed using the Barkin Index of Maternal Functioning (BIMF). This index was designed to measure functioning in the year after childbirth. The BIMF is a 20-item self-report measure of functioning. Each item is assigned a score between 0 and 6 so that the maximum total score is 120. The higher the score, the better maternal functioning is rated.
The BIMF identifies the key functional domains of a mother during the postnatal period as: self-care, infant care, mother-child interaction, psychological wellbeing of the mother, social support, management, and adjustment.
(§1) The patient completed all planned visit days.

[2] = Pharmacokinetics after inhalation of 5-MeO-DMT, LC-MS/MS
[3] = tested on: patient with postpartum depression (PPD); test: Clinical trial of inhaled 5-MeO-DMT (IDR, 6 mg then 12 mg), MADRS; type: in vivo, human; conditions: one PPD patient; for Total MADRS improvement / Total MADRS score: baseline 29
Excerpt: as §1

[4] = tested on: patient with postpartum depression (PPD); test: Clinical trial of inhaled 5-MeO-DMT (IDR, 6 mg then 12 mg), BPRS; type: in vivo, human; conditions: one PPD patient, baseline 6
Excerpt: as §1

[5] = tested on: patient with postpartum depression (PPD); test: Clinical trial of inhaled 5-MeO-DMT, safety and tolerability; type: in vivo, human; conditions: one PPD patient
Excerpt: as §1

With `COc1ccc2[nH]cc(CCN(C)C)c2c1` [5-MeO-DMT] the “BIMF item 19 (As time goes on, I am getting better at taking care of my baby) score” value ([1]; Day 7, Day 0 score 0) was 1, the “BIMF item 16 (I worry about how other people judge me (as a mother)) score” value ([1]; Day 7, Day 0 score 3) was 5 and the “BIMF item 13 (I am taking good care of my physical needs) score” value ([1]; Day 7, Day 0 score 4) was 5. For the same compound, the “BIMF item 5 (I am able to relax and enjoy time with my baby) score” value ([1]; Day 7, Day 0 score 5) was 6, the “BIMF item 9 (I am getting enough encouragement from other people) score” value ([1]; Day 7, Day 0 score 5) was 6 and the “BIMF item 10 (I trust my own feelings (instincts) when it comes to taking care of my baby) score” value ([1]; Day 7, Day 0 score 5) was 6. For the same compound, the “BIMF item 11 (I take a little time each week to do something for myself) score” value ([1]; Day 7, Day 0 score 5) was 6, the “BIMF item 17 (I am able to take care of my baby and my other responsibilities) score” value ([1]; Day 7, Day 0 score 5) was 5 and the “BIMF functional domain Adjustment score” value ([1]; Day 7, Day 0 score 5, maximum possible 12) was 6. The “BIMF item 3 (I am comfortable with the way I've chosen to feed my baby) score” value ([1]; Day 7, Day 0 score 6) was 6, the “BIMF item 6 (There are people in my life that I can trust to care for my baby when I need a break) score” value ([1]; Day 7, Day 0 score 6) was 6 and the “BIMF item 8 (I am getting enough adult interaction) score” value ([1]; Day 7, Day 0 score 6) was 6. The “BIMF item 12 (I am taking good care of my baby's physical needs) score” value ([1]; Day 7, Day 0 score 6) was 6, the “BIMF item 14 (I make good decisions about my baby's health and well being) score” value ([1]; Day 7, Day 0 score 6) was 6 and the “BIMF item 20 (I am satisfied with the job I am doing as a new mother) score” value ([1]; Day 7, Day 0 score 6) was 5. For the same compound, the “BIMF functional domain Self Care score” value ([1]; Day 7, Day 0 score 9, maximum possible 18) was 13, the “BIMF functional domain Infant Care score” value ([1]; Day 7, Day 0 score 12, maximum possible 12) was 12 and the “BIMF functional domain Mother-Child Interaction score” value ([1]; Day 7, Day 0 score 15, maximum possible 18) was 17. For the same compound, the “BIMF functional domain Social Support score” value ([1]; Day 7, Day 0 score 17, maximum possible 18) was 18, the “BIMF functional domain Management score” value ([1]; Day 7, Day 0 score 28, maximum possible 36) was 33 and the “BIMF functional domain Psychological Well-being score” value ([1]; Day 7, Day 0 score 44, maximum possible 60) was 53. For the same compound, the “BIMF total score improvement” value ([1]; Day 7, from 92 to 105) was 14%, the “BIMF TOTAL Δ (Day 7)” value ([1]; Day 7 vs Day 0) was 13 and the “BIMF functional domain Adjustment % Improvement” value ([1]; Day 7 vs Day 0) was 20.00%. For the same compound, the “BIMF functional domain Infant Care % Improvement” value ([1]; Day 7 vs Day 0) was 0.00%, the “BIMF functional domain Management % Improvement” value ([1]; Day 7 vs Day 0) was 18% and the “BIMF functional domain Self Care % Improvement” value ([1]; Day 7 vs Day 0) was 44%. The “BIMF item 3 (I am comfortable with the way I've chosen to feed my baby) Δ (Day 7)” value ([1]; Day 7 vs Day 0) was 0, the “BIMF item 5 (I am able to relax and enjoy time with my baby) Δ (Day 7)” value ([1]; Day 7 vs Day 0) was 1 and the “BIMF item 6 (There are people in my life that I can trust to care for my baby when I need a break) Δ (Day 7)” value ([1]; Day 7 vs Day 0) was 0. For the same compound, the “BIMF item 8 (I am getting enough adult interaction) Δ (Day 7)” value ([1]; Day 7 vs Day 0) was 0, the “BIMF item 9 (I am getting enough encouragement from other people) Δ (Day 7)” value ([1]; Day 7 vs Day 0) was 1 and the “BIMF item 10 (I trust my own feelings (instincts) when it comes to taking care of my baby) Δ (Day 7)” value ([1]; Day 7 vs Day 0) was 1. The “BIMF item 11 (I take a little time each week to do something for myself) Δ (Day 7)” value ([1]; Day 7 vs Day 0) was 1, the “BIMF item 12 (I am taking good care of my baby's physical needs) Δ (Day 7)” value ([1]; Day 7 vs Day 0) was 0 and the “BIMF item 13 (I am taking good care of my physical needs) Δ (Day 7)” value ([1]; Day 7 vs Day 0) was 1. For the same compound, the “BIMF item 14 (I make good decisions about my baby's health and well being) Δ (Day 7)” value ([1]; Day 7 vs Day 0) was 0, the “BIMF item 17 (I am able to take care of my baby and my other responsibilities) Δ (Day 7)” value ([1]; Day 7 vs Day 0) was 0 and the “BIMF item 19 (As time goes on, I am getting better at taking care of my baby) Δ (Day 7)” value ([1]; Day 7 vs Day 0) was 1. The “BIMF item 20 (I am satisfied with the job I am doing as a new mother) Δ (Day 7)” value ([1]; Day 7 vs Day 0) was −1, the “plasma concentration as % of Cmax” value ([2]; 10 minutes after administration, whole dose range tested (6 mg, 12 mg, 18 mg)) was ≤ 10 % of Cmax and the “plasma concentration as % of Cmax” value ([2]; after 2 hours, whole dose range tested (6 mg, 12 mg, 18 mg)) was ≤ 1 % of Cmax. For the same compound, the “detectability in the plasma” value ([2]; after 3 hours, whole dose range tested (6 mg, 12 mg, 18 mg)) was “no longer detectable”, the “pharmacokinetic measurements, uptitration dosing schemes” value ([2]; compared with the single dose results) was “Substantially similar results” and the “accumulation upon repeated administration” value ([2]; repeated administration within a time frame of 1 to 4 hours) was “No accumulation”. For the same compound, the “standard criteria for MADRS remission (MADRS total score equal or less than 10)” value [3] was “fulfilled”, the “standard criteria for MADRS response (at least 50% improvement from baseline)” value [3] was “fulfilled” and the “Total MADRS improvement” value ([3]; 2 hr) was 24. For the same compound, the “Total MADRS score” value ([3]; 2 hr) was 5, the “Total MADRS improvement” value ([3]; Day 1) was 29 and the “Total MADRS score” value ([3]; Day 1) was 0. The “Total MADRS improvement” value ([3]; Day 7) was 28, the “Total MADRS score” value ([3]; Day 7) was 1 and the “time to clinical remission after administration” value ([3]; IDR 6 mg then 12 mg) was no more than 2 h. The “BPRS Tension improvement” value ([4]; Day 1) was 5, the “BPRS Tension improvement” value ([4]; Discharge) was 5 and the “ECG (at 3 hours), safety laboratory analyses (at 7 days), CADSS (at 3 hours, 1 day and 7 days)” value [5] was “unremarkable”. The “reported adverse events (cramping left abdominal pain and headache, both on Day 0)” value [5] was “mild, short-lasting and resolved spontaneously”, the “tolerability of the inhalation procedure” value [5] was “well tolerated with no inhalation-related adverse events” and the “changes in vital parameters” value ([5]; shortly after administration, no other noteworthy changes) was “temporary, clinically non-relevant increase in heart rate and blood pressure”.
